“And” between values parts separate entries of the source, which are not always exact repeats. Equal entries are not always repeated. Where two headings read alike, the source gives them in different places.
Experiments:
[1] = system: dispersed islet cells of donors with T1D; assay: Glucagon secretion from dispersed islet cells of donors with T1D; assay type: cell-based, human; details: for Secretion of glucagon: dispersed islet cells, T1D donors, one value per donor, Figure 2H
Procedure: (§1) Pancreata of nondiabetic C57BL/6J mice were digested using collagenase P (Roche Diagnostics, catalog 11213873001), and islets were manually picked up using a stereomicroscope (ZEISS Stemi 305). […] Isolated mouse islets or provided human islets were dispersed as described ([28]). Briefly, 100–120 islets were washed 2 times using modified HBSS, then dispersed in 600 μL Accutase (Innovative Cell Technologies, catalog AT-104) by gently pipetting up and down for 7 minutes at 37°C. […] Following refreshing of KRBH, cells were dispensed in 8 microfuge tubes (2,000 cells/tube) and treated with WCDD301, preclustered Ephrin-A5 Fc, or preclustered Fc in the presence or absence of the competitive inhibitor of EphA4 receptor, rhyncophylline ([60]) (MilliporeSigma, catalog SML2345). In the presence or absence of these effectors, secretion assay was performed sequentially as shown in Supplemental Table 5. […] Preclustering of Ephrin-A5 Fc was done by mixing Ephrin-A5 Fc or Fc alone (BioLegend, catalog 790102) with anti-Fc antibody (Invitrogen, catalog A16086) (1:10 molar ratio) 20 minutes before treatment ([62]). […] Shedding of cleaved EphA4 was measured from the cell culture medium. Experiments were performed by dispersion of 200 islets, and EphA4 levels in media were measured by EphA4 ELISA (ABclonal, catalog RK06572).
The Integrated Islet Distribution Program provided us human donor islets with their characteristics (Supplemental Table 6). Islets were centrifuged at 500g for 3 minutes, resuspended in CMRL 1066 medium (Gibco, catalog 1150-037) containing 11 mM glucose, and rested in an incubator overnight.
For the hormone secretion assay, islets or dispersed islet cells were adapted in KRBH buffer containing 11 mM glucose for 1 hour. Then, after 2 washes in HBSS containing 11 mM glucose, islets or cells were treated in the following sequential order in the presence or absence of WCDD301: incubation in KRBH (1 mM glucose, 30 minutes) followed by medium collection, incubation in KRBH (11 mM glucose, 30 minutes) followed by medium collection.

diabetic NOD mice = assay: Plasma glucagon in NOD mice after treatment; assay type: in vivo, mouse; set-up: Plasma glucagon: unit not given beside the values
Procedure: Terminal blood was collected into microfuge tubes containing K2-EDTA (supplemented by 45 mM phenylmethylsulphonyl fluoride and 0.77 μM aprotinin) through cardiac puncture. Plasma was separated by centrifugation (2,000g for 10 minutes at 4°C) and kept at –80°C until analysis. Plasma samples with hemolysis were excluded from the study. […] Values of BUN, creatinine, ALB, ALT, and AST were determined by a Roche Cobas C501 Autoanalyzer as performed by the Washington University Diabetes Research Center Translational Diagnostics Core. Reference intervals of blood chemistry parameters for inbred NOD mice were extracted from the Mouse Phenome Database (https://phenome.jax.org/).

EphA4 receptor = target: T1, EphA4 receptor (Mus musculus, UniProt Q03137); assay: ELISA: binding affinity (Ki) of WCDD301 for EphA4 via bound Ephrin-A5 Fc; set-up: Bound Ephrin (0.1 µM-WCDD301) / Bound Ephrin, raw data: unit not given here; details: for Bound Ephrin (0.1 µM-WCDD301): replicates, Figure 1B
T1 construct: purchased R&D Systems 641-A4-200
Procedure: Wells of the protein A–coated microplate (Pierce, catalog 15132) were washed using 200 μL of binding buffer (PBS supplemented by 0.01% Tween 20). Recombinant mouse EphA4 Fc chimera protein (R&D Systems, catalog 641-A4-200) was reconstituted in 1× PBS (Genesee, catalog 25-507XB, pH 7.2 ± 0.1), diluted to 3 μg/mL using binding buffer, dispensed (100 μL) in each well, and rocked on a belly dancer shaker (3 hours at room temperature, RT). Following 3 washes in the binding buffer, blocking was done using blocking buffer (5% BSA in binding buffer) for 3 hours at RT. Then, after 5 washes, the reconstituted recombinant mouse Ephrin-A5 Fc (R&D Systems, catalog 7396-EA-050) was added (100 μL) into each well and rocked for 2.5 hours on the shaker (Ephrin-A5 Fc concentrations were used as described in the Results section). After 7 washes using binding buffer, alkaline phosphatase–conjugated antibody against Ephrin-A5 was diluted (1:1,000) in the binding buffer plus 2% BSA, added to each well, and incubated at 4°C, overnight. Conjugation of the anti-EFNA5 antibody (Abnova, catalog H00001946-M02; 0.5 mg/mL; target sequence 114–203) was done using Abcam conjugation kit (catalog ab102850) based on the manufacturer’s instruction. After washing 7 times, p-nitrophenyl phosphate tablet (MilliporeSigma, catalog N1891) was reconstituted in 5 mL of PBS and added to each well (100 μL). Following 1 hour shaking at RT in the dark, reaction was stopped by adding 100 μL of 3N NaOH. OD was read at 405 nm within 5 minutes using the microplate reader (Agilent BioTek Cytation 5).
As a control, Fc fragment (BioLegend, catalog 790102) was incubated and used for normalization of data. […] Then, Ki was determined via an approach called finding Ki without global fitting ([58]) by using the following formula: […]
This approach provided a Km value for […] and an estimate for its binding affinity, Ki. To further verify this finding, experiments were designed in the context of 8 nM Ephrin-A5 to determine bound levels of Ephrin-A5 in the presence of WCDD301 (0, 0.1, 0.4, 0.8, and 1.6 μM). Data were normalized and fit by nonlinear regression in GraphPad Prism software version 4 to determine IC50. Then, by using the Cheng-Prusoff equation

[2] = system: murine dispersed islet cells; assay: Glucagon secretion from murine dispersed islet cells; assay type: cell-based, mouse; details: for Relative secretion of glucagon: one value per mouse
Procedure: as §1

[3] = WCDD301 0.1 µM, 8 nM Ephrin-A5, Figure 1C

T1 sequence (Q03137 with tags, fused parts or gaps limits assumed): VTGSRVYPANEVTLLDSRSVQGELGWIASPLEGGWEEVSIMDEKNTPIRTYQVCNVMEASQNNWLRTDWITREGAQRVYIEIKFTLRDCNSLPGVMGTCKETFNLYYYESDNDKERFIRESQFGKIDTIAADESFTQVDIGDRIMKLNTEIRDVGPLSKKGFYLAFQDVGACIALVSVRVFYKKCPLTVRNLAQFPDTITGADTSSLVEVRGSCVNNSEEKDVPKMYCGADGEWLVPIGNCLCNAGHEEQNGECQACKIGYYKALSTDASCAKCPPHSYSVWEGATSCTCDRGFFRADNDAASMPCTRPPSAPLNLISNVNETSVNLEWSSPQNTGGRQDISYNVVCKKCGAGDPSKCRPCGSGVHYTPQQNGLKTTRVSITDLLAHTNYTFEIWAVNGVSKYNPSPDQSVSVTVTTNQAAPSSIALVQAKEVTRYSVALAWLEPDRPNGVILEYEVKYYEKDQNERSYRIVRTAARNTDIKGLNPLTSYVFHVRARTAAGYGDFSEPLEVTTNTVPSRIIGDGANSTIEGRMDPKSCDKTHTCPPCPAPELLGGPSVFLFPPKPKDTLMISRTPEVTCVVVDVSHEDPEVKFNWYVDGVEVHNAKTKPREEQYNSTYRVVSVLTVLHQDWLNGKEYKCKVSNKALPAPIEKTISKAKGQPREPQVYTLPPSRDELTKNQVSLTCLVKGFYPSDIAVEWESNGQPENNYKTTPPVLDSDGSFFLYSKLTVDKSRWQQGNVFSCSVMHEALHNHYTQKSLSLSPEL

Compound: CC(=O)OCC(N)(COC(C)=O)COC(C)=O [WCDD301, 2-(acetoxymethyl)-2-aminopropane-1,3-diyl diacetate]
- Effect on glucagon secretion ([1]; dispersed islet cells from donors with long-standing T1D): reduced glucagon secretion
- Secretion of glucagon ([1]; 1 mM glucose): 13.445 and 14.59
- Secretion of glucagon ([1]; 11 mM glucose): 27.55 and 31.85
- Plasma glucagon (diabetic NOD mice; WCDD301-treated diabetic NOD mice, per mouse, Figure 6B): 22.15 and 11 and 44 and 25 and 47
- Effect on plasma glucagon (diabetic NOD mice; diabetic NOD mice): suppression of glucagon levels
- Ki (EphA4 receptor; 8 nM Ephrin-A5, Figure 1C, read-out: Ki via Cheng-Prusoff equation): 130 nM
- IC50 (EphA4 receptor; 8 nM Ephrin-A5, WCDD301 0-1.6 μM, Figure 1C): 210 nM
- Bound Ephrin (0.1 µM-WCDD301) (EphA4 receptor; EFN 2 nM): 0.08 and 0.079 and 0.05
- Bound Ephrin (0.1 µM-WCDD301) (EphA4 receptor; EFN 4 nM): 0.057 and 0.077 and 0.06
- Bound Ephrin (0.1 µM-WCDD301) (EphA4 receptor; EFN 8 nM): 0.119 and 0.122 and 0.09
- Bound Ephrin (0.1 µM-WCDD301) (EphA4 receptor; EFN 16 nM): 0.141 and 0.136 and 0.1
- Bound Ephrin (0.1 µM-WCDD301) (EphA4 receptor; EFN 32 nM): 0.235 and 0.22 and 0.2
- Bound Ephrin (0.1 µM-WCDD301) (EphA4 receptor; EFN 64 nM): 0.301 and 0.295 and 0.32
- Ki (EphA4 receptor; ELISA with Ephrin-A5 Fc, read-out: Ki, binding affinity for EphA4 receptor): ≤ 130 nM
- Bound Ephrin, normalized (EphA4 receptor; [3]): 51.76 and 79.12
- Bound Ephrin, raw data (EphA4 receptor; [3]): 0.069 and 0.1
- Bound Ephrin, raw data (EphA4 receptor; WCDD301 0.4 µM, 8 nM Ephrin-A5, Figure 1C): 0.037 and 0.06 and 0.07
- Bound Ephrin, raw data (EphA4 receptor; WCDD301 0.8 µM, 8 nM Ephrin-A5, Figure 1C): 0.02 and 0.035 and 0.04
- Bound Ephrin, raw data (EphA4 receptor; WCDD301 1.6 µM, 8 nM Ephrin-A5, Figure 1C): 0.012 and 0.009 and 0.01
- Effect on arginine-stimulated glucagon secretion ([2]; 1 mM and 11 mM glucose, Arg 25 mM, 301 3 µM, E 4 µg/mL, Supplemental Figure 2): its effect was suppressed
- Effect on glucagon secretion ([2]; 11 mM glucose, Figure 1F): suppressed glucagon secretion
- Secretion of glucagon ([2]; 301 (1.5 µM) + Rhy (2.5 µM), Glucose (1 mM), Figure 1H): 1.25 and 1.09 and 1.1 and 1.05 and 1
- Secretion of glucagon ([2]; 301 (1.5 µM) + Rhy (2.5 µM), Glucose (11 mM), Figure 1H): 0.64 and 0.69 and 0.7 and 0.75 and 0.72
- Relative secretion of glucagon ([2]; 301 (1.5 µM), Glucose (1 mM), Figure 1F): 0.81 and 0.78 and 0.75 and 0.68 and 0.86
- Relative secretion of glucagon ([2]; 301 (1.5 µM), Glucose (11 mM), Figure 1F): 0.91 and 0.85 and 1.05 and 0.78 and 1.01
- Secretion of glucagon ([2]; 301 (3 µM) + Rhy (2.5 µM), Glucose (1 mM), Figure 1H): 0.87 and 0.81 and 0.9 and 0.85 and 0.8
- Secretion of glucagon ([2]; 301 (3 µM) + Rhy (2.5 µM), Glucose (11 mM), Figure 1H): 0.41 and 0.5 and 0.46 and 0.45 and 0.48
- Relative secretion of glucagon ([2]; 301 (3 µM), Glucose (1 mM), Figure 1F): 0.89 and 0.7 and 0.75 and 0.68
- Relative secretion of glucagon ([2]; 301 (3 µM), Glucose (11 mM), Figure 1F): 0.83 and 0.75 and 0.7 and 0.8 and 0.87
- Glucagon secretion in presence of rhyncophylline ([2]; WCDD301 3 μM, Figure 1H): outcompeted the inhibitor
